The values below come from publication PMC6934184, “Selective DNA-PKcs inhibition extends the therapeutic index of localized radiotherapy and chemotherapy” (The Journal of Clinical Investigation, 2019).

In the assay the target is T1, CSK (Homo sapiens, UniProt P41240).
T1 construct: purchased Thermo Fisher Scientific (Life Technologies) SelectScreen
Description: SelectScreen Z'LYTE. In kind it is biochemical. Put shortly:
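NU5455 was profiled across the SelectScreen Broad panel of kinase activity and binding assays. Z'LYTE reactions such as CSF1R ran at apparent Km ATP, while the Adapta CAMK1 assay used ATP listed as 10. Values are given as percent.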

T1 sequence (P41240 whole entry): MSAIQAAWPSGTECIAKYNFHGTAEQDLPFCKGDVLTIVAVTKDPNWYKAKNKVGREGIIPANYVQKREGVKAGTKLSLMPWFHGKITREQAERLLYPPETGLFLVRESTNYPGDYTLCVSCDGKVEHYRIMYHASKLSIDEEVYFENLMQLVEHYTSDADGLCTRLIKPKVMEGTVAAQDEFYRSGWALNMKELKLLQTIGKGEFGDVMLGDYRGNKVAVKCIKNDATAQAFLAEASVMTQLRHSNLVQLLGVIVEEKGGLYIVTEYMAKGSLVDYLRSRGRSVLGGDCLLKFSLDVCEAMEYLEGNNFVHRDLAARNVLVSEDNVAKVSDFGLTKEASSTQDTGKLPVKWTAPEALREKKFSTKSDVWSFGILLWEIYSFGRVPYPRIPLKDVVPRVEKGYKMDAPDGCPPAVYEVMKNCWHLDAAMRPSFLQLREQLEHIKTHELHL

In the case of `CN(C(=O)CN1CCOCC1)c1ccc2sc3c(-c4cccc5c(=O)cc(N6CC7CCC(C6)O7)oc45)cccc3c2c1` [NU5455], the inhibition (in general, the percentage by which the read-out fell short of the control) at 1 µM turned out to be 7.6%.
